{"source": "patent US20140051631A1", "about": "“PHARMACEUTICAL COMPOSITION COMPRISING TPO OR AN AGONIST OF THE TPO RECEPTOR” (priority 2012, published 2014)", "molecules": {"B1": {"name": "Flt3-ligand: recombinant cytokine of the culture medium (100 ng/ml) (protein, UniProt P49771 27-235, looked up)", "Fms-related tyrosine kinase 3 …": "TQDCSFQHSPISSDFAVKIRELSDYLLQDYPVTVASNLQDEELCGGLWRLVLAQRWMERLKTVAGSKMQGLLERVNTEIHFVTKCAFQPPPSCLRFVQTNISRLLQETSEQLVALKPWITRQNFSRCLELQCQPDSSTLPPPWSPRPLEATAPTAPQPPLLLLLLLPVGLLLLAAAWCLHWQRTRRRTPRPGEQVPPVPSPQDLLLVEH"}}, "key": {"DNA-PK": {"target": "T1, DNA-PK (Mus musculus, UniProt P97313)", "T1 construct": "LSK and LSK-CD34^− cells were sorted using ARIAS cell sorter; endogenous in cells; host or cells: primary mouse bone-marrow LSK-CD34- cells", "test": "γH2AX foci resolution in LSK-CD34− cultures with DNA-PK inhibitor", "assay_type": "cell-based, mice", "conditions": "10 μm NU7441 in TPO-containing cultures of LSK-CD34− cells, IR 2 Gy, 24 h", "from_the_text": "(§1) Mpl^−/− backcrossed on C57BL/6 (CD45.2) background (kindly provided by Dr F. de Sauvage) were described previously (Petit-Cocault et al., 2007). C57BL/6J (CD45.2 and CD45.1) and CB17-Prkdc-scid mice were purchased from Charles River and Harlan laboratories, respectively. Unless otherwise specified, mice of 8-10 weeks of age were used. Lin^− progenitors were isolated from BM and stained as described (Saulnier et al., 2012). LSK and LSK-CD34^− cells were sorted using ARIAS cell sorter (BD Franklin Lakes, N.J., USA) and cultured in StemSpan SFEM (StemCell Technologies) supplemented with recombinant Flt3-Ligand (100 ng/ml), interleukin-3 (IL-3, 10 ng/ml), interleukin-6 (IL-6, 10 ng/ml), Stem cell factor (SCF, 100 ng/ml), and with or without 50 ng/ml TPO (complete medium), all from Peprotech (Rocky Hill, N.J., USA). […] For competitive reconstitution experiments, 3000 LSKs sorted from C57BL/6 CD45.1 mice subjected or not to TBI (2 Gy) and TPO injection (8 μg/kg body weight), were injected in lethally irradiated (10 Gy) C57BL/6 CD45.2 congenic mice, together with 3×10^5 BM CD45.2 competitor cells and analyzed 4 months later.\n(§2) Immunofluorescence was performed as described (Pawlikowska et al., 2010) with cells cytospun on glass slides. […] Pictures were analyzed using ImageJ software."}, "LSKs [1]": {"tested_on": "LSKs", "test": "γH2AX foci / DNA break disappearance after IR in vitro in cytokine cultures", "assay_type": "cell-based, mice", "conditions": "removal of the cytokine from culture medium", "from_the_text": "as §1, §2"}, "LSKs [2]": {"tested_on": "LSKs", "test": "γH2AX foci in LSKs of mice after TBI or chemotherapeutic drug injection", "assay_type": "in vivo", "conditions": "WT mice, vs PBS", "from_the_text": "(§3) Mpl^−/− backcrossed on C57BL/6 (CD45.2) background (kindly provided by Dr F. de Sauvage) were described previously (Petit-Cocault et al., 2007). C57BL/6J (CD45.2 and CD45.1) and CB17-Prkdc-scid mice were purchased from Charles River and Harlan laboratories, respectively. Unless otherwise specified, mice of 8-10 weeks of age were used. Lin^− progenitors were isolated from BM and stained as described (Saulnier et al., 2012). LSK and LSK-CD34^− cells were sorted using ARIAS cell sorter (BD Franklin Lakes, N.J., USA) and cultured in StemSpan SFEM (StemCell Technologies) supplemented with recombinant Flt3-Ligand (100 ng/ml), interleukin-3 (IL-3, 10 ng/ml), interleukin-6 (IL-6, 10 ng/ml), Stem cell factor (SCF, 100 ng/ml), and with or without 50 ng/ml TPO (complete medium), all from Peprotech (Rocky Hill, N.J., USA). UT7-Mpl cells (Hamelin et al., 2006) were cultured in α-minimal essential medium (α-MEM) supplemented with 10% FCS and 2 U/ml erythropoietin (EPO, Boehringer Ingelheim). Cell IR in vitro were carried-out in a Biobeam 8000 irradiator (Gamma Service Medical GmbH, Leipzig, Germany). Mice TBI were performed in cesium irradiator IBL 637 (Curie Institute, Paris). Etoposide and doxorubicine were purchased from sigma (Saint-Louis, Mo., USA), drugs were injected intraperitoneally at the indicated doses. For competitive reconstitution experiments, 3000 LSKs sorted from C57BL/6 CD45.1 mice subjected or not to TBI (2 Gy) and TPO injection (8 μg/kg body weight), were injected in lethally irradiated (10 Gy) C57BL/6 CD45.2 congenic mice, together with 3×10^5 BM CD45.2 competitor cells and analyzed 4 months later.\n(§4) Immunofluorescence was performed as described (Pawlikowska et al., 2010) with cells cytospun on glass slides. Slides were visualized with Leica DMI 6000 (Wetzlar, Germany) microscope equipped with a 63×1.6 oil-immersion objective and a coupled device camera MicroMAX (Princeton Instruments Trenton, N.J., USA). Pictures were analyzed using ImageJ software."}, "Rad51 foci": {"tested_on": "Rad51 foci", "test": "Homologous recombination markers: Rad51 foci and repair of replicative-stress DSBs", "assay_type": "cell-based"}, "WT HSPCs": {"tested_on": "WT HSPCs", "test": "Chromosomal rearrangements in HSPCs irradiated in vitro", "assay_type": "cell-based, mice", "conditions": "WT HSPCs irradiated in vitro (2 Gy), cultured in the absence of TPO", "from_the_text": "as §1\nChromosomal aberration analysis in metaphase spreads were performed as described previously (Pawlikowska et al., 2010). […] Fluorescence was analyzed with a Zeiss Axioplan epifluorescent microscope and ISIS/M-FISH imaging system (MetaSystems)."}, "LSK and LSK-CD34^− cells [3]": {"tested_on": "LSK and LSK-CD34^− cells", "test": "Persistent DNA damage (γH2AX) in LSK and LSK-CD34− cells 3 months after TBI", "assay_type": "in vivo, mice", "conditions": "TPO prior to TBI, analyzed 3 months later", "from_the_text": "as §1, §2"}, "LSK and LSK-CD34^− cells [4]": {"tested_on": "LSK and LSK-CD34^− cells", "test": "LSK and LSK-CD34− proportions, cell cycle status and cell cycle regulators 5 h after TBI", "assay_type": "in vivo, mice", "from_the_text": "as §3"}, "LSKs [5]": {"tested_on": "LSKs", "test": "Competitive reconstitution with LSKs from irradiated donor mice", "assay_type": "in vivo", "from_the_text": "as §1, with “USA). UT7-Mpl cells (Hamelin et al., 2006) were cultured in α-minimal essential medium (α-MEM) supplemented with 10% FCS and 2 U/ml erythropoietin (EPO, Boehringer Ingelheim).” for “USA).”"}, "UT7-Mpl cells": {"tested_on": "UT7-Mpl cells", "test": "DNA damage and p-DNA-PK foci in UT7-Mpl cells after IR", "assay_type": "cell-based, human", "from_the_text": "as §3, §4"}, "LSKs from SCID mice": {"tested_on": "LSKs from SCID mice", "test": "γH2AX foci in LSKs from SCID mice after TBI", "assay_type": "in vivo", "conditions": "SCID mice (DNA-PKcs mutation), TPO 8 μg/kg, TBI 2 Gy, 16 h", "from_the_text": "as §1, §2"}, "Lin^− progenitors": {"tested_on": "Lin^− progenitors", "test": "Chromosomal aberrations in metaphases from Lin− progenitors after TBI in vivo", "parameters": "species or system mice", "description": "Fluorescence was analyzed with a Zeiss Axioplan epifluorescent microscope and ISIS/M-FISH imaging system (MetaSystems)."}, "[6]": {"conditions": "in the absence of TPO, compared to TPO-treated cells, IR 2 Gy"}}}
{"molecule": "O=c1cc(N2CCOCC2)oc2c(-c3cccc4c3sc3ccccc34)cccc12", "note": "[NU7441]", "values": [{"measurement": "TPO-improved γH2AX foci resolution", "setting": "DNA-PK", "result": "completely abolished"}]}
{"molecule": "Stem cell factor [SCF, reference compound]", "values": [{"measurement": "kinetics of IR-induced γH2AX foci or DNA break disappearance", "setting": "LSKs [1]", "result": "did not impair"}]}
{"molecule": "Thrombopoietin [TPO]", "values": [{"measurement": "number of LSKs displaying γH2AX foci", "setting": "LSKs [2]; TPO 8 μg/kg injected just before 2 Gy TBI, at 5 h", "result": "reduced significantly"}, {"measurement": "number of LSKs displaying γH2AX foci", "setting": "LSKs [2]; TPO injected just before doxorubicine (3 or 10 mg/kg), at 24 h", "result": "reduced significantly"}, {"measurement": "number of LSKs displaying γH2AX foci", "setting": "LSKs [2]; TPO injected just before etoposide (4 mg/kg), at 24 h", "result": "reduced significantly"}, {"measurement": "repair of DSBs induced by replicative stresses", "setting": "Rad51 foci; camptotecin and hydroxyurea", "result": "could not improve"}, {"measurement": "IR-induced Rad51 foci formation", "setting": "Rad51 foci; functional marker of HR", "result": "did not increase"}, {"measurement": "chromosomal rearrangements", "setting": "WT HSPCs", "result": "high numbers"}, {"measurement": "number and cycle of HSCs and HSPCs", "setting": "LSK and LSK-CD34^− cells [3]", "result": "no effect"}, {"measurement": "persistent DNA damage (γH2AX foci) in HSCs and HSPCs", "setting": "LSK and LSK-CD34^− cells [3]", "result": "almost completely abolished"}, {"measurement": "proportions of LSK and LSK-CD34− cells recovered from BM", "setting": "LSK and LSK-CD34^− cells [4]; 5 h after TBI, PBS vs TPO-treated mice", "result": "not significantly different"}, {"measurement": "cell cycle status of LSK or LSK-CD34− cells", "setting": "LSK and LSK-CD34^− cells [4]; TPO treatment pre-TBI, compared to PBS", "result": "did not alter"}, {"measurement": "expression of cell cycle regulators p57kip2 and p27Kip1", "setting": "LSK and LSK-CD34^− cells [4]; after TPO injection and TBI", "result": "remained unchanged"}, {"measurement": "increase in donor CD45.1 chimerism in the peripheral blood and in BM LSK cells", "setting": "LSKs [5]; 4 months after transplantation, TPO vs PBS before TBI", "result": "3- to 5 fold"}, {"measurement": "donor chimerism, difference between the TPO and PBS groups", "setting": "LSKs [5]; 6 weeks posttransplantation", "result": "No difference"}, {"measurement": "TPO action on IR-induced DNA damage in human cell line", "setting": "UT7-Mpl cells; UT7-Mpl grown with EPO or TPO", "result": "could also act"}, {"measurement": "number of UT7-Mpl cells showing IR-induced pSer2056- and pT2609-DNA-PK foci", "setting": "UT7-Mpl cells; [6]", "result": "significantly decreased"}, {"measurement": "p-DNA-PK foci number in positively stained cells", "setting": "UT7-Mpl cells; [6]", "result": "greatly reduced"}, {"measurement": "total DNA-PK signal", "setting": "UT7-Mpl cells; upon IR or TPO treatment", "result": "did not change"}, {"measurement": "TBI-induced LSK γH2AX foci formation", "setting": "LSKs from SCID mice", "result": "did not decrease"}, {"measurement": "chromosomal aberrations in metaphases from progenitor cells", "setting": "Lin^− progenitors; 3 months from TBI, TPO-injected mice", "result": "greatly reduced"}, {"measurement": "genomic instability (genomic rearrangements) transmitted to progenitor progeny of LSKs", "setting": "Lin^− progenitors; 4 months after reconstitution of lethally irradiated recipients, TPO injection before TBI", "result": "significantly reduced"}]}
{"molecule": "B1", "values": [{"measurement": "kinetics of IR-induced γH2AX foci or DNA break disappearance", "setting": "LSKs [1]", "result": "did not impair"}]}
